For series [1] the following is noted: cited from earlier work.
For the next series, the system named is Candida albicans (CA). The experiment in a line: Minimum Inhibitory Concentration (MIC) test in YEME media, 96 well plate. Format: cell-based. The method, then:
These materials produced according to Examples 4-6 were examined for their biocidal efficacy by following a standardised Minimum Inhibitory Concentration (MIC) test. The test consisted of known number of cells of a strain of Candida albicans (CA) in YEME (yeast extract malt extract media), inoculating concentrations of the active material and blanks contained in a 96 well plate. The plates were incubated at 37° C. overnight, and then examined with a UV plate reader at a wavelength of 550 nm.
Equivalent experiments were also conducted to determine the MIC for the biocide active dissolved in a water miscible solvent. In these cases the “blank” reference material was simply a sample of the solvent containing no active compound.
All experiments were repeated 4 times.
All experiments were conducted in YEME media against a CA culture.

In brackets after ≈: the same amount, converted by molar mass.

This is an account of results in US20090239749A1, “Biocidal compositions” (priority 2006, published 2009).

Consider `CC1(C)[C@H](C(=O)O[C@H](C#N)c2cccc(Oc3ccccc3)c2)[C@@H]1/C=C(\Cl)C(F)(F)F` (racemic) [λ-cyhalothrin], for which the solubility in water in series [1] was 0.005 µg/mL (≈ 0.0111 µM).

With `CO/C=C(/C(=O)OC)c1ccccc1Oc1cc(Oc2ccccc2C#N)ncn1` [Azoxystrobin, methyl(E)-2-{2-[6-(2-cyanophenoxy)pyrimidin-4-yloxy]phenyl}-3-methoxyacrylate], the solubility in water in series [1] was roughly 6 µg/mL (≈ 14.9 µM).

For the compound `N#Cc1c(Cl)c(Cl)c(Cl)c(C#N)c1Cl` [Chlorothalonil, 2,4,5,6-tetrachloroisophthalonitrile], the solubility in water in series [1] was roughly 0.6 µg/mL (≈ 2.26 µM). As a reminder, the MIC is the lowest concentration found to suppress growth. In turn, `CC(=O)N1CCN(c2ccc(OCC3COC(Cn4ccnc4)(c4ccc(Cl)cc4Cl)O3)cc2)CC1` (stereo not shown) [Ketoconazole, acetyl-dichlorophenyl-imidazole] had a minimum inhibitory concentration (MIC) in the series on Candida albicans (CA) (ketoconazole, initial concentration 0.15 mg/ml active, incubated overnight 37° C.) of 65 µg/mL (≈ 122 µM). In the case of `CCCC1COC(Cn2cncn2)(c2ccc(Cl)cc2Cl)O1` (stereo not shown) [Propiconazole, 1-(2-(2,4-dichlorophenyl)-4-propyl-1-1,3-dioxolan-2-ylmethyl)-1H-1,2,4-tri azole], the minimal inhibitory concentration (MIC) in the series with Candida albicans (CA) (dissolved in a water/propylene glycol cosolvent mixture) came out at 91.6 µg/mL (≈ 268 µM). The solubility in water result in series [1] was “around 100 mg/L”. For `Oc1cc(Cl)ccc1Oc1ccc(Cl)cc1Cl` [Triclosan, 5-chloro-2-(2,4-dichlorophenoxy)-phenol], the solubility in water in series [1] was 17 µg/mL (≈ 58.7 µM).
